Measurements from US9695155B2, “Herbicidal substituted pyrimidinyloxy benzene compounds” (E. I. DU PONT DE NEMOURS AND COMPANY, priority 2013, dated 2017).

How the values were obtained:
chickweed = experiment: Test C postemergence; type: in vivo, Stellaria media; settings: for Plant response rating (0 to 100), Chickweed: 16 g ai/ha, 0 is no effect, 100 is complete control; for Chickweed plant response rating: 31 g ai/ha; for Chickweed plant response rating / Plant response rating, Chickweed: scale 0 to 100 (0 no effect, 100 complete control)
Outline: (§1)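 Plants were kept under greenhouse conditions for 13–15 days following spray. Pre-emergent application went to soil (loam–sand), post-emergent to foliage at 1–4 leaves. Evaluation: visual, percent control against untreated checks.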

johnsongrass = experiment: Test C postemergence; type: in vivo, Sorghum halepense; settings: for Plant response rating (0 to 100), Johnsongrass: 16 g ai/ha, 0 is no effect, 100 is complete control; for Johnsongrass plant response rating: 31 g ai/ha; for Johnsongrass plant response rating / Plant response rating, Johnsongrass: scale 0 to 100 (0 no effect, 100 complete control)
Outline: as §1

giant foxtail [1] = experiment: Test C postemergence; type: in vivo, Setaria faberii; settings: for Plant response rating (0 to 100), Foxtail, Giant: 16 g ai/ha, 0 is no effect, 100 is complete control; for Foxtail, Giant plant response rating: 31 g ai/ha; for Foxtail, Giant plant response rating / Plant response rating, Foxtail, Giant: scale 0 to 100 (0 no effect, 100 complete control)
Outline: as §1

giant foxtail [2] = experiment: Test A preemergence; type: in vivo, Setaria faberii; settings: for Foxtail, Giant plant response rating (0 to 100 scale): 125 g ai/ha
Outline: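 Injury scores run from 0, no effect, to 100, complete control, judged by eye against untreated plants roughly 10 days after treatment. Chemicals carried a surfactant in a non-phytotoxic solvent and went onto loam–sand soil preemergence or onto one- to two-leaf seedlings postemergence.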

blackgrass = experiment: Test C postemergence; type: in vivo, Alopecurus myosuroides; settings: for Plant response rating (0 to 100), Blackgrass: 16 g ai/ha, 0 is no effect, 100 is complete control; for Blackgrass plant response rating: 31 g ai/ha; for Blackgrass plant response rating / Plant response rating, Blackgrass: scale 0 to 100 (0 no effect, 100 complete control)
Outline: as §1

yellow nutsedge = experiment: Test C postemergence; type: in vivo, Cyperus esculentus; settings: for Plant response rating (0 to 100), Nutsedge, Yellow: 16 g ai/ha, 0 is no effect, 100 is complete control; for Nutsedge, Yellow plant response rating: 31 g ai/ha; for Nutsedge, Yellow plant response rating / Plant response rating, Nutsedge, Yellow: scale 0 to 100 (0 no effect, 100 complete control)
Outline: as §1

corn = experiment: Test C postemergence; type: in vivo, Zea mays; settings: for Plant response rating (0 to 100), Corn: 16 g ai/ha, 0 is no effect, 100 is complete control; for Corn plant response rating: 31 g ai/ha; for Corn plant response rating / Plant response rating, Corn: scale 0 to 100 (0 no effect, 100 complete control)
Outline: as §1

wild oat = experiment: Test C postemergence; type: in vivo, Avena fatua; settings: for Plant response rating (0 to 100), Oat, Wild: 16 g ai/ha, 0 is no effect, 100 is complete control; for Oat, Wild plant response rating: 31 g ai/ha; for Oat, Wild plant response rating / Plant response rating, Oat, Wild: scale 0 to 100 (0 no effect, 100 complete control)
Outline: as §1

large (Lg) crabgrass = experiment: Test C postemergence; type: in vivo, Digitaria sanguinalis; settings: for Plant response rating (0 to 100), Crabgrass, Large: 16 g ai/ha, 0 is no effect, 100 is complete control; for Crabgrass, Large plant response rating: 31 g ai/ha; for Crabgrass, Large plant response rating / Plant response rating, Crabgrass, Large: scale 0 to 100 (0 no effect, 100 complete control)
Outline: as §1

waterhemp = experiment: Test C postemergence; type: in vivo, Amaranthus rudis; settings: for Plant response rating (0 to 100), Waterhemp: 16 g ai/ha, 0 is no effect, 100 is complete control; for Waterhemp plant response rating: 31 g ai/ha; for Waterhemp plant response rating / Plant response rating, Waterhemp: scale 0 to 100 (0 no effect, 100 complete control)
Outline: as §1

Italian ryegrass = experiment: Test C postemergence; type: in vivo, Lolium multiflorum; settings: for Plant response rating (0 to 100), Ryegrass, Italian: 16 g ai/ha, 0 is no effect, 100 is complete control; for Ryegrass, Italian plant response rating: 31 g ai/ha; for Ryegrass, Italian plant response rating / Plant response rating, Ryegrass, Italian: scale 0 to 100 (0 no effect, 100 complete control)
Outline: as §1

[3] = postemergence, visual rating, 13 to 15 days
[4] = 125 g ai/ha, postemergence, visual rating
[5] = Postemergence, 62 g ai/ha, 13 to 15 days

**Q.** With `N#Cc1cnn(-c2c(Oc3ncc(F)cn3)cccc2C(F)F)c1` [Compound 240] as the molecule, how does the “Plant response rating (0 to 100), Chickweed” value (chickweed; postemergence) read?
**A.** 5

**Q.** What about the “Chickweed plant response rating” value (chickweed; [3]) of the same molecule?
**A.** 5

**Q.** And the “Plant response rating, Chickweed” value (chickweed; [4])?
**A.** 55

**Q.** And the “Plant response rating, Chickweed” value (chickweed; [5])?
**A.** 55

**Q.** And the “Plant response rating (0 to 100), Johnsongrass” value (johnsongrass; postemergence)?
**A.** 10

**Q.** And the “Johnsongrass plant response rating” value (johnsongrass; [3])?
**A.** 5

**Q.** What about the “Plant response rating, Johnsongrass” value (johnsongrass; [4]) of the same molecule?
**A.** 10

**Q.** What about the “Plant response rating, Johnsongrass” value (johnsongrass; [5]) of the same molecule?
**A.** 5

**Q.** What about the “Plant response rating (0 to 100), Foxtail, Giant” value (giant foxtail [1]; postemergence) of the same molecule?
**A.** 0

**Q.** And the “Foxtail, Giant plant response rating” value (giant foxtail [1]; [3])?
**A.** 35

**Q.** What about the “Plant response rating, Foxtail, Giant” value (giant foxtail [1]; [4]) of the same molecule?
**A.** 40

**Q.** What about the “Plant response rating, Foxtail, Giant” value (giant foxtail [1]; [5]) of the same molecule?
**A.** 20

**Q.** What about the “Foxtail, Giant plant response rating (0 to 100 scale)” value (giant foxtail [2]) of the same molecule?
**A.** 100

**Q.** What about the “Foxtail, Giant plant response rating” value (giant foxtail [2]; 500 g ai/ha, 0 to 100 scale where 0 is no effect and 100 is complete control) of the same molecule?
**A.** 100

**Q.** And the “Plant response rating (0 to 100), Blackgrass” value (blackgrass; postemergence)?
**A.** 0

**Q.** And the “Blackgrass plant response rating” value (blackgrass; [3])?
**A.** 0

**Q.** And the “Plant response rating, Blackgrass” value (blackgrass; [4])?
**A.** 5

**Q.** What about the “Plant response rating, Blackgrass” value (blackgrass; [5]) of the same molecule?
**A.** 0

**Q.** And the “Plant response rating (0 to 100), Nutsedge, Yellow” value (yellow nutsedge; postemergence)?
**A.** 0

**Q.** What about the “Nutsedge, Yellow plant response rating” value (yellow nutsedge; [3]) of the same molecule?
**A.** 0

**Q.** And the “Plant response rating, Nutsedge, Yellow” value (yellow nutsedge; [4])?
**A.** 5

**Q.** What about the “Plant response rating, Nutsedge, Yellow” value (yellow nutsedge; [5]) of the same molecule?
**A.** 0

**Q.** What about the “Plant response rating (0 to 100), Corn” value (corn; postemergence) of the same molecule?
**A.** 0

**Q.** And the “Corn plant response rating” value (corn; [3])?
**A.** 5

**Q.** And the “Plant response rating, Corn” value (corn; [4])?
**A.** 15

**Q.** And the “Plant response rating, Corn” value (corn; [5])?
**A.** 5

**Q.** And the “Plant response rating (0 to 100), Oat, Wild” value (wild oat; postemergence)?
**A.** 0

**Q.** What about the “Oat, Wild plant response rating” value (wild oat; [3]) of the same molecule?
**A.** 0

**Q.** And the “Plant response rating, Oat, Wild” value (wild oat; [4])?
**A.** 0

**Q.** And the “Plant response rating, Oat, Wild” value (wild oat; [5])?
**A.** 0

**Q.** And the “Plant response rating (0 to 100), Crabgrass, Large” value (large (Lg) crabgrass; postemergence)?
**A.** 10

**Q.** And the “Crabgrass, Large plant response rating” value (large (Lg) crabgrass; [3])?
**A.** 5

**Q.** What about the “Plant response rating, Crabgrass, Large” value (large (Lg) crabgrass; [4]) of the same molecule?
**A.** 20

**Q.** What about the “Plant response rating, Crabgrass, Large” value (large (Lg) crabgrass; [5]) of the same molecule?
**A.** 5

**Q.** What about the “Plant response rating (0 to 100), Waterhemp” value (waterhemp; postemergence) of the same molecule?
**A.** 10

**Q.** And the “Waterhemp plant response rating” value (waterhemp; [3])?
**A.** 25

**Q.** And the “Plant response rating, Waterhemp” value (waterhemp; [4])?
**A.** 70

**Q.** What about the “Plant response rating, Waterhemp” value (waterhemp; [5]) of the same molecule?
**A.** 55

**Q.** What about the “Plant response rating (0 to 100), Ryegrass, Italian” value (Italian ryegrass; postemergence) of the same molecule?
**A.** 0

**Q.** And the “Ryegrass, Italian plant response rating” value (Italian ryegrass; [3])?
**A.** 0

**Q.** And the “Plant response rating, Ryegrass, Italian” value (Italian ryegrass; [4])?
**A.** 0

**Q.** What about the “Plant response rating, Ryegrass, Italian” value (Italian ryegrass; [5]) of the same molecule?
**A.** 0

**Q.** For `FCc1cccc(Oc2ncc(Cl)cn2)c1-n1cc(I)cn1` [Compound 245], which “Plant response rating (0 to 100), Chickweed” value (chickweed; postemergence) is on record?
**A.** 5

**Q.** What about the “Chickweed plant response rating” value (chickweed; [3]) of the same molecule?
**A.** 60

**Q.** And the “Plant response rating, Chickweed” value (chickweed; [4])?
**A.** 100

**Q.** What about the “Plant response rating, Chickweed” value (chickweed; [5]) of the same molecule?
**A.** 80

**Q.** What about the “Plant response rating (0 to 100), Johnsongrass” value (johnsongrass; postemergence) of the same molecule?
**A.** 5

**Q.** What about the “Johnsongrass plant response rating” value (johnsongrass; [3]) of the same molecule?
**A.** 5

**Q.** What about the “Plant response rating, Johnsongrass” value (johnsongrass; [4]) of the same molecule?
**A.** 10

**Q.** What about the “Plant response rating, Johnsongrass” value (johnsongrass; [5]) of the same molecule?
**A.** 10

**Q.** What about the “Plant response rating (0 to 100), Foxtail, Giant” value (giant foxtail [1]; postemergence) of the same molecule?
**A.** 35

**Q.** And the “Foxtail, Giant plant response rating” value (giant foxtail [1]; [3])?
**A.** 35

**Q.** And the “Plant response rating, Foxtail, Giant” value (giant foxtail [1]; [4])?
**A.** 15

**Q.** And the “Plant response rating, Foxtail, Giant” value (giant foxtail [1]; [5])?
**A.** 20

**Q.** And the “Plant response rating, Foxtail, Giant” value (giant foxtail [2]; 31 g ai/ha, 0 to 100 scale where 0 is no effect and 100 is complete control, visual, approximately 10 days)?
**A.** 60

**Q.** What about the “Foxtail, Giant plant response rating (0 to 100 scale)” value (giant foxtail [2]) of the same molecule?
**A.** 100

**Q.** And the “Plant response rating (0 to 100), Blackgrass” value (blackgrass; postemergence)?
**A.** 0

**Q.** What about the “Blackgrass plant response rating” value (blackgrass; [3]) of the same molecule?
**A.** 0

**Q.** And the “Plant response rating, Blackgrass” value (blackgrass; [4])?
**A.** 5

**Q.** And the “Plant response rating, Blackgrass” value (blackgrass; [5])?
**A.** 5

**Q.** And the “Plant response rating (0 to 100), Nutsedge, Yellow” value (yellow nutsedge; postemergence)?
**A.** 5

**Q.** What about the “Nutsedge, Yellow plant response rating” value (yellow nutsedge; [3]) of the same molecule?
**A.** 5

**Q.** And the “Plant response rating, Nutsedge, Yellow” value (yellow nutsedge; [4])?
**A.** 10

**Q.** And the “Plant response rating, Nutsedge, Yellow” value (yellow nutsedge; [5])?
**A.** 5

**Q.** And the “Plant response rating (0 to 100), Corn” value (corn; postemergence)?
**A.** 5

**Q.** And the “Corn plant response rating” value (corn; [3])?
**A.** 5

**Q.** And the “Plant response rating, Corn” value (corn; [4])?
**A.** 5

**Q.** What about the “Plant response rating, Corn” value (corn; [5]) of the same molecule?
**A.** 5

**Q.** And the “Plant response rating (0 to 100), Oat, Wild” value (wild oat; postemergence)?
**A.** 0

**Q.** What about the “Oat, Wild plant response rating” value (wild oat; [3]) of the same molecule?
**A.** 0

**Q.** What about the “Plant response rating, Oat, Wild” value (wild oat; [4]) of the same molecule?
**A.** 5

**Q.** What about the “Plant response rating, Oat, Wild” value (wild oat; [5]) of the same molecule?
**A.** 5

**Q.** What about the “Plant response rating (0 to 100), Crabgrass, Large” value (large (Lg) crabgrass; postemergence) of the same molecule?
**A.** 5

**Q.** And the “Crabgrass, Large plant response rating” value (large (Lg) crabgrass; [3])?
**A.** 5

**Q.** And the “Plant response rating, Crabgrass, Large” value (large (Lg) crabgrass; [4])?
**A.** 15

**Q.** And the “Plant response rating, Crabgrass, Large” value (large (Lg) crabgrass; [5])?
**A.** 10

**Q.** What about the “Plant response rating (0 to 100), Waterhemp” value (waterhemp; postemergence) of the same molecule?
**A.** 60

**Q.** And the “Waterhemp plant response rating” value (waterhemp; [3])?
**A.** 65

**Q.** What about the “Plant response rating, Waterhemp” value (waterhemp; [4]) of the same molecule?
**A.** 75

**Q.** And the “Plant response rating, Waterhemp” value (waterhemp; [5])?
**A.** 85

**Q.** And the “Plant response rating (0 to 100), Ryegrass, Italian” value (Italian ryegrass; postemergence)?
**A.** 0

**Q.** And the “Ryegrass, Italian plant response rating” value (Italian ryegrass; [3])?
**A.** 0

**Q.** And the “Plant response rating, Ryegrass, Italian” value (Italian ryegrass; [4])?
**A.** 5

**Q.** And the “Plant response rating, Ryegrass, Italian” value (Italian ryegrass; [5])?
**A.** 0
